Reference: the supplement of paper PMC10307832

Assays:
Test in all cases: relative viability (nuclei count vs DMSO), 5 days (fraction); higher = more cells survive
A549 = test system: A549
Method in brief: (§1)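 Relative viability equals treated-well nuclei counts divided by vehicle-well nuclei counts. Counts came from 4× images of lung cancer cell lines grown in 1536-well plates for 5 days after pin-tool dosing on the day after seeding. Dosing used one drug alone or a fixed anchor-drug dose plus five library-drug doses (not always all listed) in √10 steps, and values are medians of duplicate plates.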

Calu-6 = test system: Calu-6
Method in brief: as §1

EBC-1 = test system: EBC-1
Method in brief: as §1

IA-LM = test system: IA-LM
Method in brief: as §1

NCI-H1299 = test system: NCI-H1299
Method in brief: as §1

NCI-H1703 = test system: NCI-H1703
Method in brief: as §1

NCI-H2126 = test system: NCI-H2126
Method in brief: as §1

| SMILES | relative viability (A549; first compound 0.04 µM) | relative viability (A549; first compound 0.1265 µM) | relative viability (A549; first compound 0.4 µM) | relative viability (A549; first compound 1.265 µM) | relative viability (A549; first compound 4 µM) | relative viability (Calu-6; first compound 0.04 µM) | relative viability (Calu-6; first compound 0.1265 µM) | relative viability (Calu-6; first compound 0.4 µM) | relative viability (Calu-6; first compound 1.265 µM) | relative viability (Calu-6; first compound 4 µM) | relative viability (EBC-1; first compound 0.04 µM) | relative viability (EBC-1; first compound 0.1265 µM) | relative viability (EBC-1; first compound 0.4 µM) | relative viability (EBC-1; first compound 1.265 µM) | relative viability (EBC-1; first compound 4 µM) | relative viability (IA-LM; first compound 0.04 µM) | relative viability (IA-LM; first compound 0.1265 µM) | relative viability (IA-LM; first compound 0.4 µM) | relative viability (IA-LM; first compound 1.265 µM) | relative viability (IA-LM; first compound 4 µM) | relative viability (NCI-H1299; first compound 0.04 µM) | relative viability (NCI-H1299; first compound 0.1265 µM) | relative viability (NCI-H1299; first compound 0.4 µM) | relative viability (NCI-H1299; first compound 1.265 µM) | relative viability (NCI-H1299; first compound 4 µM) | relative viability (NCI-H1703; first compound 0.04 µM) | relative viability (NCI-H1703; first compound 0.1265 µM) | relative viability (NCI-H1703; first compound 0.4 µM) | relative viability (NCI-H1703; first compound 1.265 µM) | relative viability (NCI-H1703; first compound 4 µM) | relative viability (NCI-H2126; first compound 0.04 µM) | relative viability (NCI-H2126; first compound 0.1265 µM) | relative viability (NCI-H2126; first compound 0.4 µM) | relative viability (NCI-H2126; first compound 1.265 µM) | relative viability (NCI-H2126; first compound 4 µM) |
| --- | --- | --- | --- | --- | --- | --- | --- | --- | --- | --- | --- | --- | --- | --- | --- | --- | --- | --- | --- | --- | --- | --- | --- | --- | --- | --- | --- | --- | --- | --- | --- | --- | --- | --- | --- |
| COc1cc(N2CCC(C(N)=O)CC2)ccc1Nc1nc(N)c(Cl)c(Nc2ccccc2S(=O)(=O)C(C)C)n1 [HG-5-88-01] + CS(=O)(=O)CCNCc1ccc(-c2ccc3ncnc(Nc4ccc(OCc5cccc(F)c5)c(Cl)c4)c3c2)o1 [Lapatinib] (partner 2 µM) | 0.984 | 0.917 | 0.845 | 0.573 | 0.411 | 1.11 | 1.05 | 1.19 | 1.04 | 0.774 | 0.221 | 0.22 | 0.209 | 0.21 | 0.195 | 0.891 | 0.864 | 0.721 | 0.712 | 0.404 | 0.914 | 0.983 | 0.87 | 1.05 | 0.963 | 0.832 | 1.15 | 1.22 | 1.08 | 0.619 | 0.649 | 0.712 | 0.706 | 0.726 | 0.45 |
| COc1cc(N2CCC(C(N)=O)CC2)ccc1Nc1nc(N)c(Cl)c(Nc2ccccc2S(=O)(=O)C(C)C)n1 [HG-5-88-01] + CS(=O)(=O)N1CCN(Cc2cc3nc(-c4cccc5[nH]ncc45)nc(N4CCOCC4)c3s2)CC1 [Pictilisib] (partner 1 µM) | 0.482 | 0.495 | 0.389 | 0.323 | 0.237 | 0.942 | 0.869 | 0.848 | 0.824 | 0.698 | 0.394 | 0.362 | 0.339 | 0.324 | 0.217 | 0.398 | 0.252 | 0.244 | 0.172 | 0.145 | 0.745 | 0.724 | 0.725 | 0.643 | 0.682 | 0.217 | 0.223 | 0.228 | 0.222 | 0.226 | 0.419 | 0.435 | 0.513 | 0.501 | 0.38 |
| COc1cc(N2CCC(C(N)=O)CC2)ccc1Nc1nc(N)c(Cl)c(Nc2ccccc2S(=O)(=O)C(C)C)n1 [HG-5-88-01] + C[C@@H](Oc1cc(-c2cnn(C3CCNCC3)c2)cnc1N)c1c(Cl)ccc(F)c1Cl [Crizotinib] (partner 1 µM) | 0.735 | 0.763 | 0.699 | 0.387 | 0.0941 | 0.767 | 0.81 | 0.833 | 0.616 | 0.304 | 0.183 | 0.187 | 0.207 | 0.171 | 0.142 | 0.907 | 0.953 | 0.773 | 0.632 | 0.758 | 0.992 | 0.981 | 0.982 | 0.976 | 0.881 | 0.581 | 0.523 | 0.54 | 0.327 | 0.175 | 1.02 | 1.09 | 0.976 | 0.968 | 1.01 |
